Here are results for three molecules from patent US20140213454A1, “METHODS TO INDUCE DROUGHT TOLERANCE IN CROPS” (Valent BioSciences Corporation, priority 2013, published 2014).

SMILES strings stand for the structures.

The test system of assay [1] is corn. Description: Replicated corn trial 2012, moderate drought (Example 1). Format: in vivo. The procedure:
A replicated corn silage study was conducted in 2012. Corn was planted on May 18, 2012, and treated with two rates of GA3 at either the V2 (June 2) or V5 (June 18) growth stage, each time at two rates of GA3. Grain yields were estimated from harvests of 20 feet of row and converted to bushels of grain per acre. There was 1.5 inches of rain in the two weeks before planting but no rain from May 10 until May 29, when there was 0.7 inch rain. During June there was 2.9 inches of rain spread over the month. There were only two rain events from July 1-25, each of less than 0.2 inches. On July 26th there was approximately 2 inches of rain. Rainfall in June, July and August was about one third below the 30-year average for the area and the corn was under moderate drought conditions. Crop moisture conditions in July were described as ‘excessively dry’ by the National Climate Data Center of NOAA.

Assay [2] has as its system corn. Description: Replicated corn trial 2012, extreme and exceptional drought (Example 2). The assay is classed as in vivo. The settings on record: for Grain Yield: extreme and exceptional drought, untreated 88.45. The source says:
In a replicated trial conducted in 2012, the corn crop experienced extreme and exceptional drought in July, as described by the National Climate Data Center. Corn was planted at the end of April and treated with GA3 at either the V2 or V5 growth stages. Thirty two days after application, the GA3-treated corn was approximately 10 inches taller than the untreated on average.

The test system of the next assay is hybrid corn. As to the kind of experiment: Field trial 2012, time course of GA3 applications, hybrid corn (Example 3). The assay is classed as in vivo. The settings on record: 5.3 grams GA3/acre, extreme and exceptional drought, untreated 116. Here is the method: In another field trial conducted in 2012 a time course of GA3 applications was performed. In this trial, hybrid corn was planted on April 24, 2012 at a density of 32,000 plants/acre. The plants were sprayed with GA3 at either the fifth leaf (V5) or tassel emergence (VT) on June 6 or July 7, respectively. This trial was subjected to extreme and exceptional drought in July during set and grain fill. As is shown in Table 3 below, the effect of the spray treatments of GA3 was dependent on the timing of the GA3 application.

The subject of the next assay is perennial ryegrass. The settings on record: Jiang and Fry 1998; cited from earlier work.
The subject of assay [3] is corn. The following applies: Robertson and Greenway 1973; cited from earlier work.

On to `C=C1C[C@]23C[C@@]1(O)CC[C@H]2[C@@]12C=C[C@H](O)[C@@](C)(C(=O)O1)[C@H]2[C@@H]3C(=O)O` [GA3, gibberellic acid], for which the “Grain Yield” value in the assay with corn [1] (3.2 grams GA3/acre, application timing V2, untreated 124.0) is recorded as 141.2 Bu/Acre; in the assay with corn [1] (3.2 grams GA3/acre, application timing V5, untreated 124.0), 143.0 Bu/Acre; in the assay on corn [1] (6.4 grams GA3/acre, application timing V2, untreated 124.0), 141.1 Bu/Acre; in the assay with corn [1] (6.4 grams GA3/acre, application timing V5, untreated 124.0) it was 156.1 Bu/Acre; in the assay on corn [2] (3.2 grams GA3/acre, application stage V2), 119.70 Bu/Acre; with corn [2] (3.2 grams GA3/acre, application stage V5), 155.65 Bu/Acre. Moreover, the “Grain Yield” value in the assay with corn [2] (6.4 grams GA3/acre, application stage V2) came out at 119.83 Bu/Acre; in the assay on corn [2] (6.4 grams GA3/acre, application stage V5), 121.60 Bu/Acre; with hybrid corn (application stage V5), 155 Bu/Acre; with hybrid corn (application stage VT (tassel emergence)) it was 131 Bu/Acre. Besides, in the assay on corn [2] (thirty two days after application at V2 or V5), the “Plant height, taller than the untreated on average” value is “approximately 10 inches”.
Turning to `CCOC(=O)C1CC(=O)C(=C(O)C2CC2)C(=O)C1` (stereo not shown) [Trinexapac-ethyl, trinexapac-ethyl], the Drought tolerance entry with perennial ryegrass is “induce drought tolerance in perennial ryegrass”.
`C[N+](C)(C)CCCl` [chlormequat chloride]: the Drought resistance entry in the assay on corn [3] was “induce drought resistance in corn”.
